{"source": "patent US11957737B2", "about": "“Methods of treating microbial infection and inflammation” (Colorado Seminary, Owner and Operator of University of …, priority 2017, dated 2024)", "key": {"[1]": {"experiment": "ferrous iron (Fe++) binding capacity of LF", "details": "FIG. 3", "description": "As noted above, LF binds ferrous iron (Fe++) and controls iron distribution throughout the body and its ability to bind to inflammatory and other cell membranes and impact the activities of these cells through its iron binding activities and other mechanisms. The inventors hypothesized that the antibacterial effect may be linked to the iron binding activity of LF and that this antibacterial effect may be disrupted by nitration.\nHowever, sodium peroxinitrite caused changes that went far beyond the mere nitration of a few tyrosine residues to include destruction of tyrosine and tryptophan which at least in part were converted to unidentified reaction products. Nitration can occur as a consequence of the formation of reactive nitrogen species in the body and as a result of drug or chemical reactions, and/or environmental toxins in polluted air, water, or other routes of intake."}, "[2]": {"tested_on": "E. coli (ATCC 25922)", "experiment": "standard broth dilutions susceptibility test, read at 600 nm", "format": "cell-based", "protocol": "The following methods were used to conduct the experiments described in Examples 1-3, below: The experiments were conducted using the standard broth dilutions susceptibility test (Jorgensen, J. H.; Turnidge, J. D., Susceptibility test methods: dilution and disk diffusion methods. In Manual of Clinical Microbiology, Eleventh Edition, American Society of Microbiology: 2015; pp 1253-73). Briefly, 1 μl of glycerol stock aliquot of E. coli (ATCC 25922) was inculcated into Tryptic Soya agar (TSA) (Sigma Aldrich 22091) plates and incubated at 37° C. for 24 hrs. Subsequently, 3-5 separate colonies were selected and transferred into 4 ml Tryptic Soya broth (TSB) (Sigma Aldrich 22092) and incubated at 37° C. for 24 hrs. After incubation, samples were diluted 4 ml into 50 ml TSB to make E. coli stock. 200 μl samples were then placed into wells of a 96-microwell plate. All samples were prepared in TSB, (Blank) using TSB, ERGO (OXIS International), LF (Sigma Aldrich) and NLF were diluted to 1 mg/ml. The nitration reaction was prepared following the method reported by Selzle et al (Determination of nitration degrees for the birch pollen allergen Bet v 1. Analytical and Bioanalytical Chemistry 2013, 405(27):8945-49). According to this procedure, 400 μl aliquots of 5.0 mg/ml (±5%) LF in aqueous solution were pipetted into glass vials. […] Using the plate reader (Tecan Infinite, M1000 PRO). […]"}}}
{"molecule": "C[N+](C)(C)[C@@H](Cc1c[nH]c(=S)[nH]1)C(=O)[O-]", "note": "[ERGO, 3-(2-Sulfanylidene-1,3-dihydroimidazol-4-yl)-2-(trimethylazaniumyl)propanoate]", "values": [{"measurement": "effect of ERGO on the ferrous iron (Fe++) binding capacity of LF", "setting": "[1]", "value": "does not appear that the ability of ERGO to increase the anti-bacterial activity of LF results from binding of Fe++ on LF"}, {"measurement": "growth of E. coli", "setting": "[2]; LF 1 mg/ml or 2 mg/ml, ERGO 5 mM or 50 mM, compared to growth of E. coli without additions, FIGS. 1A and 1B", "value": "reduced the growth of E. coli"}, {"measurement": "dependence of retained anti-bacterial activity on ERGO concentration", "setting": "[2]; LF exposed to nitrating agents, various concentrations of ERGO, FIG. 2", "value": "related to the concentration of ERGO added"}]}
